Reference: article PMC8514546, “Structural basis of the P4B ATPase lipid flippase activity” (Nature Communications, 2021)

Tests used:
Neo1 [1] = molecular target: T1, Neo1 (Saccharomyces cerevisiae, UniProt P40527); assay: cryo-EM structure, […] Å; assay type: binding; conditions: E1-ATP state; AMPPCP at the N and P domain interface; 1 mM (Results) or 2 mM (Methods) AMPPCP, 5 mM MgCl2
T1 construct: full length (1151 residues), N-terminal triple FLAG tag, overexpressed in S. cerevisiae from pRS423 with GAP promoter; monomer, purified in LMNG/CHS
T1 sequence (P40527 1-1151): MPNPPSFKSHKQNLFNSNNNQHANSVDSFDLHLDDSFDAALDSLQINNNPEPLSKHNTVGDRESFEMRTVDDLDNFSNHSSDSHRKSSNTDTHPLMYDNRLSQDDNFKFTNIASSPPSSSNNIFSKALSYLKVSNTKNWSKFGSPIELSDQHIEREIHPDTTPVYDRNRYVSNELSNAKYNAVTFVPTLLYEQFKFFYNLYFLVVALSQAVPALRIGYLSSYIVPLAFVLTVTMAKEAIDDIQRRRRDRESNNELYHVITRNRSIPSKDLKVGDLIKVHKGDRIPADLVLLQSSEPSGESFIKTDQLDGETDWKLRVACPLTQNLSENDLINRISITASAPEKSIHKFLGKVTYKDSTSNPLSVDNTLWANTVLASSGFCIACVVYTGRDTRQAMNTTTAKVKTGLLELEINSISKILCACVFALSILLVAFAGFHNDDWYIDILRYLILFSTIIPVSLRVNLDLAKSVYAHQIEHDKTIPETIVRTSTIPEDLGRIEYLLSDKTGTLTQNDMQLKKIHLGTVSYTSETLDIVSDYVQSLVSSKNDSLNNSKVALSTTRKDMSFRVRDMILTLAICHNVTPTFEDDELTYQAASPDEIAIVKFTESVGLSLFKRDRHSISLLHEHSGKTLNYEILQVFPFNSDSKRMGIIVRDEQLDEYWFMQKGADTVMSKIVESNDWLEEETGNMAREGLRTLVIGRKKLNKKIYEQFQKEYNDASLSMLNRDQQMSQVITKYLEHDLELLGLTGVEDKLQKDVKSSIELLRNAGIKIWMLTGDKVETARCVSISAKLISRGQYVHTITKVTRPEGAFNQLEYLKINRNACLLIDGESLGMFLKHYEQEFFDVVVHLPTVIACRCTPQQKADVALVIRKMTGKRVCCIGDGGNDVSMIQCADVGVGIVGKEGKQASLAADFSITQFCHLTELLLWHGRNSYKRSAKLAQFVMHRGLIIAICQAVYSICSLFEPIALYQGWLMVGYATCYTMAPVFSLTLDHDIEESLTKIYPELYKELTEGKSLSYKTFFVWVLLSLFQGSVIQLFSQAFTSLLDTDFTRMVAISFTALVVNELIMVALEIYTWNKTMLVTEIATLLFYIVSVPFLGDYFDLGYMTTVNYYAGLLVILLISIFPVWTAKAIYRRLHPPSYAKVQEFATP

Neo1 [2] = molecular target: T1, Neo1; assay: lipid-stimulated ATP hydrolysis, released phosphate by BIOMOL Green; assay type: biochemical; conditions: 0.25 mM ATP, 10 mM MgCl2, pH 7.4, 37 °C, LMNG/CHS, lipid in cholate; transport substrate, acyl chain not stated

| Compound | cryo-EM structure, 5.6 Å (Neo1 [1]) | Km (Neo1 [2]) [µM] |
| --- | --- | --- |
| Nc1ncnc2c1ncn2[C@@H]1O[C@H](COP(=O)(O)OP(=O)(O)CP(=O)(O)O)[C@@H](O)[C@H]1O [AMPPCP] | the AMPPCP density is clear and the molecule stabilizes the interface between the N and P domains |  |
| lyso-PS |  | 50.3 ± 8.8 |
